ChEMBL document CHEMBL6087433, “Discovery of ART0380, a Potent and Selective ATR Kinase Inhibitor Undergoing Phase 2 Clinical Studies for the Treatment of Advanced or Metastatic Solid Cancers” (J Med Chem, 2024)
≈ marks a conversion by molar mass, not a printed value. Calls of active or inactive are those of the source. No cut-off for these calls is given here.

What was measured:
[1] = target: T1, Serine/threonine-protein kinase mTOR (Homo sapiens, UniProt P42345)
[2] = target: T1, Serine/threonine-protein kinase mTOR; remark: listed apart in the source
[3] = target: Phosphatidylinositol 3-kinase catalytic subunit type 3 (Homo sapiens, UniProt Q8NEB9)
Chain of Phosphatidylinositol 3-kinase catalytic subunit type 3 (Q8NEB9 whole entry): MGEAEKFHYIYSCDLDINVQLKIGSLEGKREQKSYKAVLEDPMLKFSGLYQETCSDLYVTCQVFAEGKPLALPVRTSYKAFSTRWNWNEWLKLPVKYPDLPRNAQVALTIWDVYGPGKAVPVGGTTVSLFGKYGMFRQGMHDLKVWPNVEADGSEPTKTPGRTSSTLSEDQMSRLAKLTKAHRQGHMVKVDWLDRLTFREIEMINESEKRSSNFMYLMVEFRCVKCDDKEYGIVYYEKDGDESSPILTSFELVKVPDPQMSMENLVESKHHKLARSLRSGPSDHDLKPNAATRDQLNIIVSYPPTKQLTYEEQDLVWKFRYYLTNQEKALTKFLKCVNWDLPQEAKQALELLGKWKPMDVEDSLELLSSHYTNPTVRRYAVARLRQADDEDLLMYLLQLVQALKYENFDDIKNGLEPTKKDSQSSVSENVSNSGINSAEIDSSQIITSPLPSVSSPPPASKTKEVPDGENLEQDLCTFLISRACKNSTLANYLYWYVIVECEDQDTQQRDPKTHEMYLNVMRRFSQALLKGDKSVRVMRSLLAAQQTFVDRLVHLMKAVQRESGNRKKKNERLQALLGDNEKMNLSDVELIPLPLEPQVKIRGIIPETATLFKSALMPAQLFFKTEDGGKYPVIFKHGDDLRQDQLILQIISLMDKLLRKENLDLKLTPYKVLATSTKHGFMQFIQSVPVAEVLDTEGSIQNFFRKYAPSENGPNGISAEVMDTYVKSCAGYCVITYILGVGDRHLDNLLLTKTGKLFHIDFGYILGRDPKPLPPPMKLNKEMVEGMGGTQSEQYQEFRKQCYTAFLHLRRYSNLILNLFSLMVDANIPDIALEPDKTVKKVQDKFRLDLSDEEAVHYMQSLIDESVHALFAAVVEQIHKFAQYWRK

[4] = target: Voltage-gated inwardly rectifying potassium channel KCNH2 (Homo sapiens, UniProt Q12809)
Chain of Voltage-gated inwardly rectifying potassium channel KCNH2 (Q12809 whole entry): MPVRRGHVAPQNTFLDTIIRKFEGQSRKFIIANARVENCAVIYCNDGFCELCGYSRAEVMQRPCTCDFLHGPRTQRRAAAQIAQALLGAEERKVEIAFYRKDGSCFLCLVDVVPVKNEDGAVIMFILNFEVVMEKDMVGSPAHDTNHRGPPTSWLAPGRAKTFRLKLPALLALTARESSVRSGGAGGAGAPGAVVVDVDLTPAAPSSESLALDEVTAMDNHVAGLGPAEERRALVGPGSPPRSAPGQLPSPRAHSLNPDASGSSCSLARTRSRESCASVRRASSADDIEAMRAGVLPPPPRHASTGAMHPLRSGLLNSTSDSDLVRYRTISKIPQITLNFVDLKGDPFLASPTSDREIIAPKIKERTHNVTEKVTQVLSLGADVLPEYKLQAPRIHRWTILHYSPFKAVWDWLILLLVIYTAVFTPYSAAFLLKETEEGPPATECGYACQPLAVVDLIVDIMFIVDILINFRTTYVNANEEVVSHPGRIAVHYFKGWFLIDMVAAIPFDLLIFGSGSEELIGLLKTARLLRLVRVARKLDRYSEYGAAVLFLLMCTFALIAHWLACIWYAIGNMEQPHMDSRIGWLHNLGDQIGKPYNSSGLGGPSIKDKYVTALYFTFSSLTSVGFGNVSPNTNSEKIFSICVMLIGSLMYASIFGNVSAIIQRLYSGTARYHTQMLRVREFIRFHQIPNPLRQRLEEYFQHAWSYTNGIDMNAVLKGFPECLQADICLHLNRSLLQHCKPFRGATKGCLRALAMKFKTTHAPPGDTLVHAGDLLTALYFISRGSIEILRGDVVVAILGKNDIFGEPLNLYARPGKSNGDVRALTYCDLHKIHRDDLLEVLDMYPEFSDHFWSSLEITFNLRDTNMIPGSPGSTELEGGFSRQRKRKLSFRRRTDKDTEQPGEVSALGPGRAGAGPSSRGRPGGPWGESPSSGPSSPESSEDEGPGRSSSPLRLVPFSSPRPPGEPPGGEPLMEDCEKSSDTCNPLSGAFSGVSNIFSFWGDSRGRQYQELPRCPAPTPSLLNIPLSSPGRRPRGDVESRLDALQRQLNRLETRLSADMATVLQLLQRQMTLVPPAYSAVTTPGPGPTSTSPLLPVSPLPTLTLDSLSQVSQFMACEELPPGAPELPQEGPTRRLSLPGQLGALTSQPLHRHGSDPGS

Cytochrome P450 1A2 = target: T2, Cytochrome P450 1A2 (Homo sapiens, UniProt P05177)
T2 sequence (P05177 whole entry): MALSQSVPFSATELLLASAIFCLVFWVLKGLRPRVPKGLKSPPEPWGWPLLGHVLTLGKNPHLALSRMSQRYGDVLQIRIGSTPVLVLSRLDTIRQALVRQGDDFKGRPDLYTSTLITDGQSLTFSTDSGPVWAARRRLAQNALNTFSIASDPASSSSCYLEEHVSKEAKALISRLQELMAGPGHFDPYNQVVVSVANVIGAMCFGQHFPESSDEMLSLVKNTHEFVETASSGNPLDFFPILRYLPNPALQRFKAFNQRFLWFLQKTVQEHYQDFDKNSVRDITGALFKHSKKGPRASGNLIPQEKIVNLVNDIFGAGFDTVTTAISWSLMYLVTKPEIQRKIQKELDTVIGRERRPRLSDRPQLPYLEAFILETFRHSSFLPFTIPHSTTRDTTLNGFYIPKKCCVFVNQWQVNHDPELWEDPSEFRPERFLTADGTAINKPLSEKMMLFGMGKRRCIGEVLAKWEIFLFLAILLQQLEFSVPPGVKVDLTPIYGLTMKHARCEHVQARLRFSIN

Cytochrome P450 2B6 = target: T3, Cytochrome P450 2B6 (Homo sapiens, UniProt P20813)
T3 sequence (P20813 whole entry): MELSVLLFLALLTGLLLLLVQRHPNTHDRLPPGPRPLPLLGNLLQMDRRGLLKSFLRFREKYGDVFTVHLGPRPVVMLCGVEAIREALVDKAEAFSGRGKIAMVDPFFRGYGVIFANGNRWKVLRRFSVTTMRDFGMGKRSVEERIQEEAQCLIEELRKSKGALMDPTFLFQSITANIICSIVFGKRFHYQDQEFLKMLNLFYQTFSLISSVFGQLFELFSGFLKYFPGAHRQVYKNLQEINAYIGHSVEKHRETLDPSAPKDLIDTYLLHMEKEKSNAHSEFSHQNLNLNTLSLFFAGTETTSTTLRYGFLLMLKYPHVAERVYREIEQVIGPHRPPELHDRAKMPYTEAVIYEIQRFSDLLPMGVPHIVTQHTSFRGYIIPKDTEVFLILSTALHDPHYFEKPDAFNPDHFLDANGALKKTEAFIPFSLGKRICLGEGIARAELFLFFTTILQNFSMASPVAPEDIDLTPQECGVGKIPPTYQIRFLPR

Cytochrome P450 2C9 = Cytochrome P450 2C9 (Homo sapiens, UniProt P11712)
Chain of Cytochrome P450 2C9 (P11712 whole entry): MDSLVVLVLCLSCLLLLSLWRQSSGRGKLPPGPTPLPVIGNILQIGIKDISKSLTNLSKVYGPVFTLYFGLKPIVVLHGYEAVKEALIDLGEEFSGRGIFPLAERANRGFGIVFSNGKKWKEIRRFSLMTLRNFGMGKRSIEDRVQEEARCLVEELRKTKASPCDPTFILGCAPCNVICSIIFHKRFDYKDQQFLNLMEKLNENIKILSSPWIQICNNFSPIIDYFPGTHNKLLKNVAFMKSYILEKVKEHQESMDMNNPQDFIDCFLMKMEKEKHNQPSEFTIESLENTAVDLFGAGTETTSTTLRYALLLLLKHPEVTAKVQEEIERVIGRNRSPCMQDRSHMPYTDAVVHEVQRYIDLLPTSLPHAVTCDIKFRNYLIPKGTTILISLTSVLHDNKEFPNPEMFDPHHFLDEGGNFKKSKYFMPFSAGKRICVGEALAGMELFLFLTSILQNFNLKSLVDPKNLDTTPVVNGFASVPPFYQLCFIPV

Cytochrome P450 3A4 = Cytochrome P450 3A4 (Homo sapiens, UniProt P08684)
Chain of Cytochrome P450 3A4 (P08684 whole entry): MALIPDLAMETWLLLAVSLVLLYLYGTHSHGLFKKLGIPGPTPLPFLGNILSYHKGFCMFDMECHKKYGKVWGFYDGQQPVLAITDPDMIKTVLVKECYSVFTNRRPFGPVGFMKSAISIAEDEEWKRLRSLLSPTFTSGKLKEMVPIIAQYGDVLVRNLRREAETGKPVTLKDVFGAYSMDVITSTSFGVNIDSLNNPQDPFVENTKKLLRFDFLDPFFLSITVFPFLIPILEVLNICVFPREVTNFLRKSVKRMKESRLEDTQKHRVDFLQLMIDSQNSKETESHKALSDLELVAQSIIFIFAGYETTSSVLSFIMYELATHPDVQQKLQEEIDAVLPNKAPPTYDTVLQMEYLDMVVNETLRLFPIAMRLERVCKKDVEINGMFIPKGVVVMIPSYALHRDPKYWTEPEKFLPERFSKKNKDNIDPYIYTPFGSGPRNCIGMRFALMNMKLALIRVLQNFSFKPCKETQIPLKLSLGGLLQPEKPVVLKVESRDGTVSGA

Mus musculus = organism: Mus musculus; conditions: CD-1, dose 30-50 mg/kg, route po, time 4.0 hrs
NCI-H23 = assay: cells; conditions: Homo sapiens
Granta-519 = assay: cells; conditions: Homo sapiens
LoVo [5] = assay: cells; conditions: Homo sapiens
in vivo [6] = conditions: CD-1, mouse, iv, 1 mg/kg
in vivo [7] = conditions: Sprague-Dawley, rat, iv, 1 mg/kg
in vivo [8] = conditions: cynomolgus monkey, iv, 1 mg/kg
in vivo [9] = conditions: Sprague-Dawley, rat, plasma, iv, 1 mg/kg
in vivo [10] = conditions: CD-1, mouse, iv, 1 mg/kg; remark: listed apart in the source
in vivo [11] = conditions: Sprague-Dawley, rat, iv, 1 mg/kg; remark: listed apart in the source
in vivo [12] = conditions: beagle, dog, iv, 1 mg/kg
in vivo [13] = conditions: cynomolgus monkey, iv, 1 mg/kg; remark: listed apart in the source
in vivo [14] = conditions: CD-1, mouse, po, 10 mg/kg
in vivo [15] = conditions: Sprague-Dawley, rat, po, 10 mg/kg
in vivo [16] = conditions: CD-1, mouse, po, 10 mg/kg; remark: listed apart in the source
in vivo [17] = conditions: Sprague-Dawley, rat, po, 10 mg/kg; remark: listed apart in the source
in vivo [18] = conditions: Beagle, dog, po, 10 mg/kg
in vivo [19] = conditions: CD-1, mouse, po, 10 mg/kg; remark: listed apart in the source
in vivo [20] = conditions: Sprague-Dawley, rat, po, 10 mg/kg; remark: listed apart in the source
in vitro [21] = conditions: human, human liver microsomes
in vitro [22] = conditions: human, CCD-18Co cells
physchem [23] = conditions: octanol/phosphate buffer, pH 7.4
physchem [24] = conditions: Fasted State Simulated Intestinal Fluid
physchem [25] = conditions: Simulated Gastric Fluid
in vitro [26] = conditions: human, Caco-2
in vitro [27] = conditions: human, Caco-2; remark: listed apart in the source
CYP3A4 = CYP3A4 (Homo sapiens, UniProt P08684); assay: in vitro; conditions: human liver microsomes, probe midazolam
Chain of CYP3A4 (P08684 whole entry): as above

in vitro [28] = conditions: mouse, plasma
in vitro [29] = conditions: rat, plasma
in vitro [30] = conditions: human, plasma
in vitro [31] = conditions: mouse, hepatocytes
in vitro [32] = conditions: cynomolgus monkey, hepatocytes
LoVo [33] = assay: animal or person; conditions: Mus musculus, po, 480 h, read-out: TGI

IC50 [1]: 0.968 µM
IC50 [2]: 8.38 µM
IC50 [3]: > 50 µM
IC50 (Cytochrome P450 1A2): > 10 µM
IC50 (Cytochrome P450 2B6): > 10 µM
IC50 (Cytochrome P450 2C9): > 10 µM
IC50 (Cytochrome P450 3A4): > 10 µM
EC50 (NCI-H23): 0.14 µM
EC50 (Granta-519): 0.448 µM
EC50 (LoVo [5]): 1.15 µM
Vd (in vivo [6]): 4.9 L/kg
Vd (in vivo [7]): 3.9 L/kg
Vd (in vivo [8]): 2 L/kg
clearance (in vivo [9]): 98 mL/min/kg
half-life (in vivo [10]): 168 min
half-life (in vivo [11]): 36 min
half-life (in vivo [12]): 186 min
half-life (in vivo [13]): 78 min
Tmax (in vivo [14]): 15 min
Tmax (in vivo [15]): 11.4 min
Cmax (in vivo [16]): 3.16 µM
Cmax (in vivo [17]): 5.56 µM
Cmax (in vivo [18]): 1.93 µM
AUC(0-t) (in vivo [19]): 4.25 µM·h
AUC(0-t) (in vivo [20]): 3.78 µM·h
CLint scaled at 0.75 h, 1 µM (in vitro [21]): 2.3 mL/min/kg
EC50 at 7 days (in vitro [22]): 6.92 µM
logD (physchem [23]): 1.62
solubility thermodynamic (physchem [24]): 1600 µg/mL (≈ 4.12 mM)
solubility thermodynamic (physchem [25]): > 13000 µg/mL
Papp A→B at 10 µM (in vitro [26]): 17 ×10⁻⁶ cm/s
Papp B→A at 10 µM (in vitro [27]): 34 ×10⁻⁶ cm/s
inhibition at 0.5 h, 10 µM (CYP3A4): 0.96%
fraction unbound at 5 h, 5 µM (in vitro [28]): 0.33
fraction unbound at 5 h, 5 µM (in vitro [29]): 0.48
fraction unbound at 5 h, 5 µM (in vitro [30]): 0.45
CLint scaled (in vitro [31]): 22 mL/min/kg
CLint scaled (in vitro [32]): 10 mL/min/kg
SMILES: C[C@@H]1COCCN1c1cc(N=[S@@](C)(=O)C2CC2)nc(-c2ccnc(N)c2)n1
IC50 [4]: > 10 µM
inhibition (Mus musculus): Active
inhibition in vivo at 30 mg/kg (LoVo [33]): 72%
